Measured values reported in PMC8026246 (Bioorganic Chemistry, 2021).

Target: SARS-CoV-2 M^pro (Severe acute respiratory syndrome coronavirus 2, UniProt P0DTD1)
Assay type: binding
Settings: pH 6.8

With CCN(CC)c1ccc2c(-c3ccccc3C(=O)O)c3ccc(=[N+](CC)CC)cc-3oc2c1 [rhodamine B] the “Fluorescent labeling of M^pro (gel, UV 365 nm)” value was “could not label M^pro”.
